Laboratory results as given in patent publication US20040023945A1, “CYCLIC AMP-SPECIFIC PHOSPHODIESTERASE INHIBITORS” (ICOS Corporation, priority 1999, published 2004).

Test system: human peripheral blood lymphocytes
Assay: Lipopolysaccharide-stimulated TNFα release from human peripheral blood lymphocytes
Format: cell-based
Conditions: Homo sapiens, Lymphocyte, LPS-stimulated TNFα release from human PBL; read-out: PBL/TNFα EC50
Description: The compounds of structural formula (II) also were tested for an ability to reduce TNFα secretion in human peripheral blood lymphocytes. The ability to reduce TNFα secretion is related to the EC50 values (i.e., the effective concentration of the compound capable of inhibiting 50% of the total TNFα).
To assess the ability of a compound to reduce TNFα secretion in human peripheral blood lymphocytes (PBL), the following tests were performed.
Heparinized blood (approximately 30 mL) drawn from human volunteers was mixed 1:1 with Dulbecco's modified phosphate-buffered saline. This mixture was mixed 1:1 with HISTOPAQUE® and centrifuged at 1,500 rpm at room temperature without braking in the swinging bucket of a Beckman model TJ6 centrifuge. Erythrocytes were centrifuged to the bottom of the tubes, and serum remained at the surface of the tubes. A layer containing lymphocytes sedimented between the serum and HISTOPAQUE® layers, and was removed by aspiration to a fresh tube. The cells were quantified and adjusted to 3×10^6 cells/mL and a 100 μL aliquot is placed into the wells of a 96 well plate. Test compounds and RPMI media (Gibco/BRL Life Sciences) are added to each of the wells 15 minutes prior to addition of bacterial LPS ([…]). The mixture was allowed to incubate for 20 hours at 37° C. in a humidified chamber. The cells then were separated by centrifuging at 800 rpm for 5 minutes at room temperature. An aliquot of 180 μL of supernatant was transferred to a new plate for determination of TNFα concentration. TNFα protein in the cell supernatant fluids was measured using a commercially available enzyme-linked immunosorbent assay (ELISA) (CYTOSCREEN® Immunoassay Kit from Biosource International).
The cell-based assay provided the following results for various pyrrolidine compounds of the present invention. The EC50 values (i.e., effective concentration of the compound capable of inhibiting 50% of the total TNFα) illustrate the ability of the present compounds to inhibit LPS-stimulated TNFα release from human PBL.

**Q.** Which EC50 does the source give for `COC(=O)N1C[C@@H](c2ccc(OC)c(OC3CCCC3)c2)[C@](C)(C(C)(C)O)C1` (racemic) [Example 1, (±)-4-(3-Cyclopentyloxy-4-methoxyphenyl)-3-(1-hydroxy-1-methylethyl)-3-methylpyrrolidine-1-carboxylic acid methyl ester] here?
**A.** 1210 nM

**Q.** `COC(=O)N1C[C@@H](c2ccc(OC)c(OC3Cc4ccccc4C3)c2)[C@](C)(C(C)O)C1` (mixture of isomers) [Example 4, trans-(±)-3-(1-Hydroxyethyl)-4-[3-(indan-2-yloxy)-4-methoxyphenyl]-3-methylpyrrolidine-1-carboxylic acid methyl ester] was tested. Which EC50 did it give?
**A.** 3610 nM

**Q.** With `COC(=O)N1C[C@@H](c2ccc(OC)c(OC(C)CCc3ccccc3)c2)[C@](C)(C(C)O)C1` (relative stereo) [Example 6, trans-3-(1-Hydroxyethyl)-4-(4-methoxy-3-(1-methyl-3-phenylpropoxy)phenyl]-3-methylpyrrolidine-1-carboxylic acid methyl ester] as the molecule, how does the EC50 read?
**A.** 3660 nM

**Q.** Which EC50 does the source give for `COc1ccc([C@@H]2CN(C(=O)C(O)c3ccccc3)CC2(C)[C@@H](C)O)cc1OC1CCCC1` (stereo in doubt) [Example 63, 1-((3R)-3-((1R)-1-Hydroxyethyl)-4-(3-cyclopentyloxy-4-methoxyphenyl)-3-methylpyrrolidinyl]-2-hydroxy-2-phenylethan-1-one] here?
**A.** 267 nM

**Q.** How did the EC50 turn out when `COc1ccc([C@@H]2CN(C(=O)CO)C[C@@]2(C)C(C)(C)O)cc1OCC1CC1` [Example 2, 1-[4-(S)-(3-Cyclopropylmethoxy-4-methoxyphenyl)-3-(1-hydroxy-1-methylethyl)-3-(S)-methylpyrrolidin-1-yl]-2-hydroxyethanone] was run?
**A.** 1900 nM

**Q.** With `COC(=O)N1C[C@@H](c2ccc(OC)c(OC3CC4CCC3C4)c2)[C@](C)(C(C)O)C1` (stereo partly drawn) [Example 5, trans 4-[3-Exo-(Bicyclo[2.2.1]hept-2-yloxy)-4-methoxyphenyl]-3-(1-hydroxyethyl)-3-methylpyrrolidine-1-carboxylic acid methyl ester] as the molecule, how does the EC50 read?
**A.** 1550 nM

**Q.** With `COc1ccc([C@@H]2CN(c3cccnc3)C[C@@]2(C)[C@@H](C)O)cc1OC1Cc2ccccc2C1` [Example 32, (1R)-1-[(3S,4S)-4-(3-Indan-2-yloxy-4-methoxyphenyl)-3-methyl-1-(3-pyridyl)pyrrolidin-3-yl]ethan-1-ol] as the molecule, how does the EC50 read?
**A.** 801 nM

**Q.** For `COc1ccc([C@@H]2CN(c3ccccn3)C[C@@]2(C)[C@@H](C)O)cc1OC1CCCC1` [Example 34, (1R)-1-[(3S,4S)-4-(3-Cyclopentyloxy-4-methoxyphenyl)-3-methyl-1-(2-pyridyl)pyrrolidin-3-yl]ethan-1-ol], which EC50 is on record?
**A.** 250 nM

**Q.** How did the EC50 turn out when `COc1ccc([C@@H]2CN(c3cccnc3)C[C@@]2(C)[C@@H](C)O)cc1OC1CCCC1` [Example 35, (1R)-1-[(3S,4S)-4-(3-Cyclopentyloxy-4-methoxyphenyl)-3-methyl-1-(3-pyridyl)pyrrolidin-3-yl]ethan-1-ol] was run?
**A.** 20.3 nM

**Q.** `COc1ccc([C@@H]2CN(C(=O)COCc3ccccc3)C[C@@]2(C)[C@@H](C)O)cc1OC1CCCC1` [Example 64, 1-[3-((1R)-1-Hydroxyethyl)(3S,4S)-4-(3-cyclopentyloxy-4-methoxyphenyl)-3-methylpyrrolidinyl]-2-(phenylmethoxy)ethan-1-one] was tested. Which EC50 did it give?
**A.** 36.2 nM

**Q.** Which EC50 does the source give for `COc1ccc([C@@H]2CN(C(=O)CO)C[C@@]2(C)[C@@H](C)O)cc1OC1CCCC1` [Example 65, 1-(3-((1R)-1-Hydroxyethyl)(3S,4S)-4-(3-cyclopentyloxy-4-methoxyphenyl)-3-methylpyrrolidinyl]-2-hydroxyethan-1-one] here?
**A.** 181 nM

**Q.** How did the EC50 turn out when `COc1ccc([C@@H]2CN(C(=O)C(C)(C)OC(C)=O)C[C@@]2(C)[C@@H](C)O)cc1OC1CCCC1` [Example 70, 2-(3-((1R)-1-Hydroxyethyl)(3S,4S)-4-(3-cyclopentyloxy-4-methoxyphenyl) -3-methylpyrrolidinyl]-1,1-dimethyl-2-oxoethyl acetate] was run?
**A.** 547 nM

**Q.** How did the EC50 turn out when `COc1ccc([C@@H]2CN(C(=O)C(N)=O)C[C@@]2(C)[C@@H](C)O)cc1OC1CCCC1` [Example 74, 2-[3-((1R)-1-Hydroxyethyl)(3S,4S)-4-(3-cyclopentyloxy-4-methoxyphenyl)-3-methylpyrrolidinyl]-2-oxoacetamide] was run?
**A.** 557 nM

**Q.** With `COc1ccc([C@@H]2CN(C(=O)C(N)=O)C[C@@]2(C)[C@@H](C)O)cc1OCC#Cc1ccccc1` [Example 75, 2-{(3S,4S)-3-((R)-1-Hydroxyethyl)-4-[4-methoxy-3-(3-phenylprop-2-ynyloxy)-phenyl]-3-methylpyrrolidin-1-yl}-2-oxo-acetamide] as the molecule, how does the EC50 read?
**A.** 121 nM

**Q.** `COc1ccc([C@@H]2CN(C(=O)C(N)=O)C[C@@]2(C)[C@@H](C)O)cc1OCC#Cc1ccc(C(F)(F)F)cc1` [Example 76, 2-((3S,4S)-3-((R)-1-Hydroxyethyl)-4-{4-methoxy-3-(3-(4-trifluoromethyl-phenyl)prop-2-ynyloxy]-phenyl}-3-methylpyrrolidin-1-yl)-2-oxo-acetamide] was tested. Which EC50 did it give?
**A.** 173 nM

**Q.** With `COc1ccc([C@@H]2CN(C(=O)C(N)=O)C[C@@]2(C)[C@@H](C)O)cc1OCCCOc1ccc(F)cc1` [Example 77, 2-[(3S,4S)-4-{3-[3-(4-Fluorophenoxy)propoxy]-4-methoxyphenyl}-3-((R)-1-hydroxyethyl)-3-methylpyrrolidin-1-yl]-2-oxo-acetamide] as the molecule, how does the EC50 read?
**A.** 580 nM

**Q.** With `COc1ccc([C@@H]2CN(C(=O)C(N)=O)C[C@@]2(C)[C@@H](C)O)cc1OCC1CC1` [Example 78, 2-[(3S,4S)-4-(3-Cyclopropylmethoxy-4-methoxyphenyl)-3-((R)-1-hydroxyethyl)-3-methylpyrrolidin-1-yl]-2-oxo-acetamide] as the molecule, how does the EC50 read?
**A.** 1290 nM

**Q.** For `COc1ccc([C@@H]2CN(C(=O)C(N)=O)C[C@@]2(C)[C@@H](C)O)cc1OC1Cc2ccccc2C1` [Example 79, 2-{(3S,4S)-3-((R)-1-Hydroxyethyl)-4-[3-(indan-2-yloxy)-4-methoxyphenyl]-3-methylpyrrolidin-1-yl}-2-oxo-acetamide], which EC50 is on record?
**A.** 2370 nM

**Q.** How did the EC50 turn out when `CNC(=O)C(=O)N1C[C@@H](c2ccc(OC)c(OC3CCCC3)c2)[C@](C)([C@@H](C)O)C1` [Example 80, 2-[3-((1R)-1-Hydroxyethyl)(3S,4S)-4-(3-cyclopentyloxy-4-methoxyphenyl)-3-methylpyrrolidinyl]-N-methyl-2-oxoacetamide] was run?
**A.** 272 nM

**Q.** How did the EC50 turn out when `COc1ccc([C@@H]2CN(C(=O)C(=O)N3CCCCC3)C[C@@]2(C)[C@@H](C)O)cc1OC1CCCC1` [Example 81, 1-[3-((1R)-1-Hydroxyethyl)(3S,4S)-4-(3-cyclopentyloxy-4-methoxyphenyl)-3-methylpyrrolidinyl]-2-piperidylethane-1,2-dione] was run?
**A.** 625 nM

**Q.** With `COc1ccc([C@@H]2CN(C(=O)C(=O)NC3CCCC3)C[C@@]2(C)[C@@H](C)O)cc1OC1CCCC1` [Example 82, 2-[3-((1R)-1-Hydroxyethyl)(3S,4S)-4-(3-cyclopentyloxy-4-methoxyphenyl)-3-methylpyrrolidinyl]-N-cyclopentyl-2-oxoacetamide] as the molecule, how does the EC50 read?
**A.** 490 nM

**Q.** Which EC50 does the source give for `COc1ccc([C@@H]2CN(C(=O)C(=O)NCc3ccccc3)C[C@@]2(C)[C@@H](C)O)cc1OC1CCCC1` [Example 83, 2-[3-((1R)-1-Hydroxyethyl)(3S,4S)-4-(3-cyclopentyloxy-4-methoxyphenyl)-3-methylpyrrolidinyl]-2-oxo-N-benzylacetamide] here?
**A.** 51 nM

**Q.** For `CCCC[C@@H](NC(=O)OCc1ccccc1)C(=O)N1C[C@@H](c2ccc(OC)c(OC3CCCC3)c2)[C@](C)([C@@H](C)O)C1` [Example 84, N-{(1R)-2-[3-((1R)-1-Hydroxyethyl)(3S,4S)-4-(3-cyclopentyloxy-4-methoxyphenyl)-3-methylpyrrolidinyl]-1-butyl-2-oxoethyl}(phenylmethoxy)carboxamide], which EC50 is on record?
**A.** 40 nM

**Q.** With `COc1ccc([C@@H]2CN(C(=O)[C@H](N)C(C)C)C[C@@]2(C)[C@@H](C)O)cc1OC1CCCC1` [Example 87, (2R)-1-[3-((1R)-1-Hydroxyethyl)(3S,4S)-4-(3-cyclopentyloxy-4-methoxyphenyl)-3-methylpyrrolidinyl]-2-amino-3-methylbutan-1-one] as the molecule, how does the EC50 read?
**A.** 934 nM

**Q.** For `COc1ccc([C@@H]2CN(C(=O)[C@@H](OC(C)=O)C3CCCCC3)C[C@@]2(C)[C@@H](C)O)cc1OC1CCCC1` [Example 88, 2-[3-((1R)1-Hydroxyethyl)(3S,4S)-4-(3-cyclopentyloxy-4-methoxyphenyl)-3-methylpyrrolidinyl](1S)-1-cyclohexyl-2-oxoethyl acetate], which EC50 is on record?
**A.** 630 nM

**Q.** `COc1ccc([C@@H]2CN(C(=O)[C@@H](O)C3CCCCC3)C[C@@]2(C)[C@@H](C)O)cc1OC1CCCC1` [Example 89, 1-[3-((1R)-1-Hydroxyethyl)(3S,4S)-4-(3-cyclopentyloxy-4-methoxyphenyl)-3-methylpyrrolidinyl](2S)-2-cyclohexyl-2-hydroxyethan-1-one] was tested. Which EC50 did it give?
**A.** 860 nM
